For one experiment, the target named is T1, HBV polymerase (Hepatitis B virus genotype D subtype ayw, UniProt P03156).
T1 construct: made in house; host or cells: E. coli
As to the kind of experiment: Inhibitory activities against HBV polymerase (reverse transcriptase activity) in vitro. Type of experiment: biochemical. Conditions: read-out: Inhibitory activity of HBV-RT (%); for inhibition at 0.01 µg/mL: 0.01 μg/ml; for inhibition at 0.1 µg/mL: 0.1 μg/ml; for inhibition at 1 µg/mL: 1 μg/ml. In short, it runs like this: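 Recombinant HBV polymerase expressed in E. coli was incubated with reaction mixture and test compound for 18~24 hours at 14° C.~30° C. Reverse transcriptase product, labelled with biotin- and DIG-modified nucleotide, detected ELISA-style with peroxidase anti-DIG antibody; inhibition judged relative to controls without compound.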

Experiment [1] concerns the target T2, HIV reverse transcriptase (Human immunodeficiency virus type 1 group M subtype B, UniProt P04585).
T2 construct: purchased Boehringer Mannheim
As to the kind of experiment: In vitro inhibition test against HIV reverse transcriptase. Type of experiment: biochemical. Conditions: read-out: Inhibitory activity of HIV-RT (%). The method, boiled down:
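Non-radioactive colorimetric kit assay: 40 ng HIV-RT with poly(A)/oligo(dT)15 template/primer plus DIG-dUTP, biotin-dUTP and TTP, incubated with compound 1 h at 37 °C. Product captured on streptavidin, detected with anti-DIG-POD and ABTS; A405 read, with activity compared to a no-compound control.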

A further experiment has as its system HBV. Conditions: results of some studies; cited from earlier work.

Structures can show the parent of a compound that is named as a salt. Where two headings read alike, the source gives them in different places.

T1 sequence (P03156 whole entry): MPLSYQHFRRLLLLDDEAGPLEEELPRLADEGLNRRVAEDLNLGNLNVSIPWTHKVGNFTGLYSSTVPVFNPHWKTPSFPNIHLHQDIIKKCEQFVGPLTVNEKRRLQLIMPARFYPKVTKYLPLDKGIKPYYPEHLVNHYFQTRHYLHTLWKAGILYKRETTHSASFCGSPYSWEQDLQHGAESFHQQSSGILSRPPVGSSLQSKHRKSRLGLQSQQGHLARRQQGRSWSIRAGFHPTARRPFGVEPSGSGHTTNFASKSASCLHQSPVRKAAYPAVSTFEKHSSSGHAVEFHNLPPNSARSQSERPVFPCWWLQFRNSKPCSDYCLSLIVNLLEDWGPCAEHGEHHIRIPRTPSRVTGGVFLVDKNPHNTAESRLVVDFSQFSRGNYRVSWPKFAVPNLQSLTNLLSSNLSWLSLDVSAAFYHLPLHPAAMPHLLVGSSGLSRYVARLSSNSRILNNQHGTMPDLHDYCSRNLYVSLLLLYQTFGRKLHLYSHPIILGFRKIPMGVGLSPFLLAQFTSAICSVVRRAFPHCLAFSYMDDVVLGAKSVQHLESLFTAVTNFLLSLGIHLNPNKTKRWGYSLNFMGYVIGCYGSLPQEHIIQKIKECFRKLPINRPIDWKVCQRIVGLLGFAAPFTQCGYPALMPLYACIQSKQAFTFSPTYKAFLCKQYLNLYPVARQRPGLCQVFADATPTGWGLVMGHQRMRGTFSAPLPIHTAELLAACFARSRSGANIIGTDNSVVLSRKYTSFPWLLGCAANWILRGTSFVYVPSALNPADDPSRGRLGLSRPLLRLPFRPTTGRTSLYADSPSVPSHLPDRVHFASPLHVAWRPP

In the case of `CC(C)Nc1cccnc1N1CCN(C(=O)c2ccc(C(=O)NCCc3ccccn3)cn2)CC1` [Exam. 82, 6-[1-[3-(isopropylamino)-2-pyridyl]piperazin-4-yl-carbonyl]-N-[2-(2-pyridyl)ethyl]nicotinamide], at HBV polymerase, the inhibition at 0.01 µg/mL came out at 24%, the inhibition at 0.1 µg/mL is 53% and the inhibition at 1 µg/mL came out at 67%. In experiment [1] (0.1 μg/ml), the inhibition at 0.1 µg/mL is 65%. Further, in experiment [1] (1 μg/ml), the inhibition at 1 µg/mL came out at 80%.
As to `CC(C)Nc1cccnc1N1CCN(C(=O)c2ccc(C(=O)NCCCn3ccnc3)cn2)CC1` [Exam. 83, N-[3-(1H-imidazol-1-yl)propyl]-6-[1-[3-(isopropylamino)-2-pyridyl]piperazin-4-yl-carbonyl]nicotinamide], at HBV polymerase, the inhibition at 0.01 µg/mL is 65%, the inhibition at 0.1 µg/mL was 72% and the inhibition at 1 µg/mL worked out at 89%. Besides, the inhibition at 0.1 µg/mL in experiment [1] (0.1 μg/ml) came out at 30%. The inhibition at 1 µg/mL in experiment [1] (1 μg/ml) was found to be 62%.
On to `CC(C)CNc1cccnc1N1CCN(C(=O)c2ccc(C(=O)NCCCn3ccnc3)cn2)CC1` [Exam. 84, N-[3-(1H-imidazol-1-yl)propyl]-6-[1-[3-(isobutylamino)-2-pyridyl]piperazin-4-yl-carbonyl]nicotinamide], for which, on HBV polymerase, the inhibition at 0.01 µg/mL was 60%, the inhibition at 0.1 µg/mL is 72% and the inhibition at 1 µg/mL amounted to 88%. Besides, in experiment [1] (0.1 μg/ml), the inhibition at 0.1 µg/mL amounted to 50%. In experiment [1] (1 μg/ml), the inhibition at 1 µg/mL stood at 62%.
For the compound `CC(C)Nc1cccnc1N1CCN(C(=O)c2ccc(C(=O)Nc3ncccc3O)cn2)CC1` [Exam. 85, N-(3-hydroxy-2-pyridyl)-6-[1-[3-(isopropylamino)-2-pyridyl]piperazin-4-yl-carbonyl]nicotinamide], the inhibition at 0.01 µg/mL at HBV polymerase stood at 61%. The inhibition at 0.1 µg/mL on HBV polymerase came out at 70%; in experiment [1] (0.1 μg/ml), 47%. The results for the inhibition at 1 µg/mL (on HBV polymerase; in experiment [1] (1 μg/ml)) were 88% and 70%, respectively.
Turning to `CC(C)NC(=O)c1ccc(C(=O)N2CCN(CCO)CC2)nc1` [Exam. 87, 6-[1-(2-hydroxyethyl)piperazin-4-yl-carbonyl]-N-isopropylnicotinamide.HCl], on HBV polymerase, the inhibition at 0.01 µg/mL was 52%, the inhibition at 0.1 µg/mL came to 58% and the inhibition at 1 µg/mL turned out to be 75%. Also, in experiment [1] (0.1 μg/ml), the inhibition at 0.1 µg/mL was determined as 60%. In addition, the inhibition at 1 µg/mL in experiment [1] (1 μg/ml) came to 81%.
With `CC(C)CNC(=O)c1ccc(C(=O)N2CCN(CCO)CC2)nc1` [Exam. 88, 6-[1-(2-hydroxyethyl)piperazin-4-yl-carbonyl]-N-isobutylnicotinamide.HCl], the inhibition at 0.01 µg/mL on HBV polymerase came to 55%. The inhibition at 0.1 µg/mL on HBV polymerase is 67%; in experiment [1] (0.1 μg/ml) it was 50%. In addition, the inhibition at 1 µg/mL was found to be 81% on HBV polymerase and 70% in experiment [1] (1 μg/ml).
On to `CCNC(=O)c1ccc(C(=O)N2CCN(CCO)CC2)nc1` [Exam. 89, N-ethyl-6-[1-(2-hydroxyethyl)piperazin-4-yl-carbonyl]nicotinamide.HCl], for which, at HBV polymerase, the inhibition at 0.01 µg/mL is 35%. The inhibition at 0.1 µg/mL at HBV polymerase amounted to 50%; in experiment [1] (0.1 μg/ml), 35%. Further, the inhibition at 1 µg/mL on HBV polymerase is 68%; in experiment [1] (1 μg/ml), 62%.
For `O=C(NCCO)c1ccc(C(=O)N2CCN(CCO)CC2)nc1` [Exam. 93, N-(2-hydroxyethyl)-6-[1-(2-hydroxyethyl)piperazin-4-yl-carbonyl]nicotinamide], at HBV polymerase, the inhibition at 0.01 µg/mL came to 30%. Also, the results for the inhibition at 0.1 µg/mL (at HBV polymerase; in experiment [1] (0.1 μg/ml)) were 59% and 25%, respectively. In addition, the inhibition at 1 µg/mL on HBV polymerase was found to be 73%; in experiment [1] (1 μg/ml), 50%.
For `CC[C@H](CO)NC(=O)c1ccc(C(=O)N2CCN(CCO)CC2)nc1` [Exam. 94, 6-[1-(2-hydroxyethyl)piperazin-4-yl-carbonyl]-N-[(1R)-1-(hydroxymethyl)propyl]nicotinamide.HCl], at HBV polymerase, the inhibition at 0.01 µg/mL was found to be 20%, the inhibition at 0.1 µg/mL came to 51% and the inhibition at 1 µg/mL turned out to be 72%. For the same compound, in experiment [1] (0.1 μg/ml), the inhibition at 0.1 µg/mL was determined as 30%. Besides, in experiment [1] (1 μg/ml), the inhibition at 1 µg/mL came out at 62%.
On to `COCCNC(=O)c1ccc(C(=O)N2CCN(CCO)CC2)nc1` [Exam. 98, 6-[1-(2-hydroxyethyl)piperazin-4-yl-carbonyl]-N-(2-methoxyethyl)nicotinamide.HCl], for which the inhibition at 0.01 µg/mL at HBV polymerase was 57%. For the same compound, the results for the inhibition at 0.1 µg/mL (on HBV polymerase; in experiment [1] (0.1 μg/ml)) were 70% and 61%, respectively. In addition, the results for the inhibition at 1 µg/mL (at HBV polymerase; in experiment [1] (1 μg/ml)) were 85% and 76%, respectively.
For `COCCCNC(=O)c1ccc(C(=O)N2CCN(CCO)CC2)nc1` [Exam. 99, 6-[1-(2-hydroxyethyl)piperazin-4-yl-carbonyl]-N-(3-methoxypropyl)nicotinamide], on HBV polymerase, the inhibition at 0.01 µg/mL worked out at 15%. For the same compound, the inhibition at 0.1 µg/mL is 60% at HBV polymerase and 65% in experiment [1] (0.1 μg/ml). Also, the inhibition at 1 µg/mL was 68% on HBV polymerase and 75% in experiment [1] (1 μg/ml).
`COCCN(CCOC)C(=O)c1ccc(C(=O)N2CCN(CCO)CC2)nc1` [Exam. 100, N,N-bis(2-methoxyethyl)-6-[1-(2-hydroxyethyl)piperazin-4-yl-carbonyl]nicotinamide.HCl]: on HBV polymerase, the inhibition at 0.01 µg/mL was found to be 20%, the inhibition at 0.1 µg/mL turned out to be 49% and the inhibition at 1 µg/mL worked out at 77%. For the same compound, the inhibition at 0.1 µg/mL in experiment [1] (0.1 μg/ml) was found to be 40%. In addition, the inhibition at 1 µg/mL in experiment [1] (1 μg/ml) is 64%.
Turning to `COC(CNC(=O)c1ccc(C(=O)N2CCN(CCO)CC2)nc1)OC` [Exam. 101, N-(2,2-dimethoxyethyl)-6-[1-(2-hydroxyethyl)piperazin-4-yl-carbonyl]nicotinamide], at HBV polymerase, the inhibition at 0.01 µg/mL amounted to 55%, the inhibition at 0.1 µg/mL amounted to 63% and the inhibition at 1 µg/mL came out at 85%. Besides, in experiment [1], the inhibition at 0.1 µg/mL was determined as 41% and the inhibition at 1 µg/mL came out at 56%.
On to `O=C(NCCN1CCOCC1)c1ccc(C(=O)N2CCN(CCO)CC2)nc1` [Exam. 102, 6-[1-(2-hydroxyethyl)piperazin-4-yl-carbonyl]-N-[2-(morpholin-4-yl)-ethyl]nicotinamide.HCl], for which, on HBV polymerase, the inhibition at 0.01 µg/mL was 32%, the inhibition at 0.1 µg/mL was found to be 56% and the inhibition at 1 µg/mL was determined as 70%. The inhibition at 0.1 µg/mL in experiment [1] (0.1 μg/ml) was 25%. In experiment [1] (1 μg/ml), the inhibition at 1 µg/mL worked out at 40%.
As to `O=C(NCc1ccco1)c1ccc(C(=O)N2CCN(CCO)CC2)nc1` [Exam. 103, N-(2-Furylmethyl)-6-[1-(2-hydroxyethyl)piperazin-4-yl-carbonyl]nicotinamide.HCl], at HBV polymerase, the inhibition at 0.01 µg/mL stood at 20%, the inhibition at 0.1 µg/mL turned out to be 54% and the inhibition at 1 µg/mL stood at 72%. Further, the inhibition at 0.1 µg/mL in experiment [1] (0.1 μg/ml) came to 65%. Further, the inhibition at 1 µg/mL in experiment [1] (1 μg/ml) amounted to 80%.
As to `CC(=O)OCC(CCn1cnc2cnc(N)nc21)COC(C)=O` [Famvir], in the experiment on HBV, the “suppressing the proliferation of HBV” value is recorded as “effective in suppressing the proliferation of HBV”.
On to `Nc1ccn([C@@H]2CS[C@H](CO)O2)c(=O)n1` [Lamivudine], for which the “suppressing the proliferation of HBV” value in the experiment on HBV is listed as “effective in suppressing the proliferation of HBV”.

The values are drawn from US6306860A, “2,5-pyridinedicarboxylic acid derivatives” (Dong Wha Pharm. Inc. Co., Ltd., priority 1998, dated 2001).
